# Patent US20230103554A1, “TNFa SIGNALING [sequence] TUMOR-PROMOTING INFLAMMATION THAT CAN BE TARGETED TO THERAPY” (Baylor College of Medicine, priority 2020, published 2023)
# Entries after “also recorded” stand apart in the source; their conditions may differ.
# Columns and labels:
# monocyte IL-6 production = test: NB-monocyte co-culture, IL-6 ELISA of supernatant; format: cell-based, human
# Protocol: (§1) Monocytes were directly cultured with wild-type or TNF, TNFR1, TNFR2 KO NB cell lines in ULA plates for 24 hours. Activation of NF-kB in monocytes and NB was measured by flow cytometry and cytokine production measured by ELISA from co-culture supernatant. To evaluate the contact-dependence of monocyte activation by NB, monocytes were cultured in ULA plates with seven-day NB conditioned medium mixed 1:1 with complete monocyte medium for 24 hours and analyzed for IL-6 production. To assess the growth advantage of NB cultured with monocytes, NB-luc cell lines and monocytes were seeded in tissue culture-treated white 96-well plates (1:1 ratio) and cultured for four days. Luminescence was measured using a TECAN Spark plate reader (TECAN). To evaluate changes in proliferation, NB was pulsed for 10 minutes in CellTrace Violet (2 μM, Invitrogen) and seeded at 100,000 cells per well in a 12-well tissue culture-treated plate. Monocytes were added directly to the NB monolayer at a density of 100,000 per well and incubated for four days. CellTrace Violet expression was analyzed by flow cytometry.
# (§2) Cytokines released by monocytes were detected within co-culture supernatants using the Human TNF-alpha Quantikine ELISA Kit (TNFα, R&D Systems) and the Human IL-6 Quantikine ELISA Kit (IL-6, R&D Systems) according to manufacturer's guidelines. ELISA plates were read using a TECAN Spark plate reader (TECAN). Global cytokine regulation was evaluated using a custom Luminex panel containing the following cytokines: CX3CL1, CXCL10, EGF, FGF-2, Flt3L, G-CSF, GM-CSF, IL-1α, IL-1β, IL-1Ra, IL-4, IL-6, IL-8, IL-10, IL-12 (p40), IL-12 (p′70), M-CSF, MCP-1, MCP-3, MDC, MIP-1α, MIP-1β, TGFα, TNFα, TNFβ, and VEGF-A (Human Cytokine Panel A, Millipore-Sigma).
# sTNFα production = test: NB-monocyte co-culture, TNFα ELISA of supernatant; format: cell-based, human
# Protocol: as §1, §2
# mTNFα = details: TAPI 40 μM, 24 hours, CD45+GD2− monocyte population
# Protocol: (FIG. 13C) NB and monocyte co-cultures were treated with TNF converting enzyme inhibitor TAPI (40 μM) or vehicle control (Veh., 0.2% DMSO) for 24 hours. Surface expression of mTNFα within CD45+GD2− monocyte population was performed using flow cytometry. MFI as indicated. Data are from a representative of two experiments run in duplicate.
# [1] = system: NF-κB signaling in NB cells; test: Intracellular IκBα in NB population of co-culture (PhosFlow flow cytometry); format: cell-based, human; details: TAPI 40 μM, 24 hours, vs vehicle control (FIG. 23C)
# Protocol: as §1
# (§3) To evaluate the expression of TNFα in NB and monocytes, cells were first stimulated with LPS (50 ng/mL) in the presence of GolgiStop (BD Biosciences) and fixed using CytoFix/Cytoperm buffer (BD Biosciences). Cells were then stained with TNFα-PE (BD Biosciences). To evaluate the expression of TNFR1 and TNFR2 on NB and monocytes, cells were stained with TNFR1-BV421 and TNFR2-APC (BD Biosciences) in FACS staining buffer containing 0.05% sodium azide to prevent receptor/antibody processing. To estimate changes in NF-kB expression, treated co-cultures were first stained with ZombieViolet (1 μL/test, Biolegend) to counterstain dead cells and APC-H7 CD45 and/or FITC-CD14 to label monocytes for 20 minutes at room temperature. […] All flow samples were run using an LSRII 5-laser flow cytometer (Texas Children's Hospital Cancer Center Flow Cytometry Core, Houston, Tex.) and analyzed using FlowJo Software (Treestar).
# [2] = system: NF-κB signaling in monocytes; test: Intracellular IκBα in monocyte population of co-culture (PhosFlow flow cytometry); format: cell-based, human; details: TAPI 40 μM, 24 hours, vs vehicle control
# Protocol: as §1, §3
SMILES,"IL-6 production from monocytes (monocyte IL-6 production; CHLA-255/monocyte co-culture, IKKi 0-1000 nM (FIG. 12C, FIG. 19))","IL-6 production in NB-monocyte co-cultures (monocyte IL-6 production; IKK inhibitor VII 125 nM, 24 hours, vs 0.1% DMSO (FIG. 1C))","soluble (s)TNFα production from monocytes (sTNFα production; CHLA-255/monocyte co-culture, IKKi 0-1000 nM (FIG. 12D, FIG. 19))",increase in surface staining for mTNFα (mTNFα) [%],"IL-6 levels in co-culture supernatant (monocyte IL-6 production; TAPI 40 μM, 24 hours, vs vehicle control)","reduction in sTNFα levels in co-culture supernatant (sTNFα production; TAPI 40 μM, 24 hours) [%]",IκBα expression level in NB cells [1],intracellular IκBα expression in monocytes [2]
O=C(c1ccc(Nc2nccc(-c3cc4ccccc4s3)n2)cc1)N1CCC(N2CCCC2)CC1 [IKK inhibitor VII],dose-dependent abrogation,reversed IL-6 production,dose-dependent abrogation,,,,,
"CC(C)C[C@H](CC(=O)NO)C(=O)N[C@@H](Cc1ccc2ccccc2c1)C(=O)N[C@@H](C)C(=O)NCCN [TAPI, TAPI-1]",,,,40,increased the activation of monocytes as measured by IL-6 levels; also recorded: significantly increased IL-6 levels,90,significant increase in IκBα expression level,no effect
